Reference: US10029992B2, “Diaminotriazine compounds and their use as herbicides” (BASF SE, priority 2014, dated 2018)

Experiments:
APESV = experiment: Greenhouse experiment, pre-emergence treatment; format: in vivo, Apera spica-venti; conditions: pre-emergence method
Description: (§1) The culture containers used were plastic flowerpots containing loamy sand with approximately 3.0% of humus as the substrate. The seeds of the test plants were sown separately for each species.
(§2) For the pre-emergence treatment, the active ingredients, which had been suspended or emulsified in water, were applied directly after sowing by means of finely distributing nozzles. The containers were irrigated gently to promote germination and growth and subsequently covered with transparent plastic hoods until the plants had rooted. This cover caused uniform germination of the test plants, unless this had been impaired by the active ingredients.
(§3) Depending on the species, the plants were kept at 10-25° C. or 20-35° C., respectively.
(§4) The test period extended over 2 to 4 weeks. During this time, the plants were tended, and their response to the individual treatments was evaluated.
(§5) Evaluation was carried out using a scale from 0 to 100. 100 means no emergence of the plants, or complete destruction of at least the aerial moieties, and 0 means no damage, or normal course of growth. A moderate herbicidal activity is given at values of at least 60, a good herbicidal activity is given at values of at least 70, and a very good herbicidal activity is given at values of at least 85.
(§6) The plants used in the greenhouse experiments were of the following species: […]

ALOMY = experiment: Greenhouse experiment, pre-emergence treatment; format: in vivo, Alopecurus myosuroides; conditions: pre-emergence method
Description: as §1, §2, §3, §4, §5, §6

AMARE [1] = experiment: Greenhouse experiment, pre-emergence treatment; format: in vivo, Amaranthus retroflexus; conditions: pre-emergence method
Description: (§7) The seeds of the test plants were sown separately for each species. For the pre-emergence treatment, the active ingredients, which had been suspended or emulsified in water, were applied directly after sowing by means of finely distributing nozzles. The containers were irrigated gently to promote germination and growth and subsequently covered with transparent plastic hoods until the plants had rooted. This cover caused uniform germination of the test plants, unless this had been impaired by the active ingredients. Depending on the species, the plants were kept at 10-25° C. or 20-35° C., respectively. The test period extended over 2 to 4 weeks. During this time, the plants were tended, and their response to the individual treatments was evaluated. Evaluation was carried out using a scale from 0 to 100. 100 means no emergence of the plants, or complete destruction of at least the aerial moieties, and 0 means no damage, or normal course of growth. A moderate herbicidal activity is given at values of at least 60, a good herbicidal activity is given at values of at least 70, and a very good herbicidal activity is given at values of at least 85. […] [table]

SETFA [2] = experiment: Greenhouse experiment, pre-emergence treatment; format: in vivo, Setaria faberi; conditions: pre-emergence method
Description: as §7

ECHCG [3] = experiment: Greenhouse experiment, pre-emergence treatment; format: in vivo, Echinochloa crus-galli; conditions: pre-emergence method
Description: as §1, §2, §3, §4, §5, §6

SETVI = experiment: Greenhouse experiment, post-emergence treatment; format: in vivo, Setaria viridis; conditions: post-emergence method, application rate 63 g/ha
Description: (§8) The seeds of the test plants were sown separately for each species. […] For this purpose, the test plants were either sown directly and grown in the same containers, or they were first grown separately as seedlings and transplanted into the test containers a few days prior to treatment. Depending on the species, the plants were kept at 10-25° C. or 20-35° C., respectively. The test period extended over 2 to 4 weeks. During this time, the plants were tended, and their response to the individual treatments was evaluated. Evaluation was carried out using a scale from 0 to 100. 100 means no emergence of the plants, or complete destruction of at least the aerial moieties, and 0 means no damage, or normal course of growth. A moderate herbicidal activity is given at values of at least 60, a good herbicidal activity is given at values of at least 70, and a very good herbicidal activity is given at values of at least 85. […] [table]

STEME = experiment: Greenhouse experiment, post-emergence treatment; format: in vivo, Stellaria media; conditions: post-emergence method, application rate 63 g/ha
Description: as §8

CAPBP = experiment: Greenhouse experiment, post-emergence treatment; format: in vivo, Capsella bursa-pastoris; conditions: post-emergence method, application rate 63 g/ha
Description: as §8

ABUTH = experiment: Greenhouse experiment, post-emergence treatment; format: in vivo, Abutilon theophrasti; conditions: post-emergence method, application rate 125 g/ha
Description: as §8

SETFA [4] = experiment: Greenhouse experiment, post-emergence treatment; format: in vivo, Setaria faberi; conditions: post-emergence method, application rate 125 g/ha
Description: as §8

AMARE [5] = experiment: Greenhouse experiment, post-emergence treatment; format: in vivo, Amaranthus retroflexus; conditions: post-emergence method, application rate 125 g/ha
Description: as §8

ECHCG [6] = experiment: Greenhouse experiment, post-emergence treatment; format: in vivo, Echinochloa crus-galli; conditions: post-emergence method, application rate 125 g/ha
Description: as §8

Structure (SMILES)	herbicidal activity against ABUTH (ABUTH)	herbicidal activity against SETFA (SETFA [4])	herbicidal activity against AMARE (AMARE [5])	further results
CC(C)(F)c1nc(N)nc(Nc2c(F)cccc2Oc2ccccc2)n1 [Example 25]				herbicidal activity against APESV (APESV; application rate 0.25 kg/ha): very good (a very good herbicidal activity is given at values of at least 85); herbicidal activity against ALOMY (ALOMY; application rate 0.25 kg/ha): very good (a very good herbicidal activity is given at values of at least 85); herbicidal activity against AMARE (AMARE [1]; application rate 0.25 kg/ha): very good (a very good herbicidal activity is given at values of at least 85)
COC(C)(C)c1nc(N)nc(Nc2c(F)cccc2Oc2cc(C)cc(C)c2)n1 [Example 36]				herbicidal activity against SEFTA (SETFA [2]; application rate 1000 g/ha): very good (a very good herbicidal activity is given at values of at least 85); herbicidal activity against APESV (APESV; application rate 0.25 kg/ha): very good (a very good herbicidal activity is given at values of at least 85); herbicidal activity against APESV (APESV; application rate 1000 g/ha): very good (a very good herbicidal activity is given at values of at least 85); herbicidal activity against ALOMY (ALOMY; application rate 0.25 kg/ha): good (a good herbicidal activity is given at values of at least 70); herbicidal activity against ECHCG (ECHCG [3]; application rate 1000 g/ha): very good (a very good herbicidal activity is given at values of at least 85)
CC(C)(F)c1nc(N)nc(Nc2c(F)cccc2Oc2cc(C(F)(F)F)cc(C(F)(F)F)c2)n1 [Example 52]				herbicidal activity against SETVI (SETVI): very good (a very good herbicidal activity is given at values of at least 85); herbicidal activity against STEME (STEME): very good (a very good herbicidal activity is given at values of at least 85); herbicidal activity against CAPBP (CAPBP): very good (a very good herbicidal activity is given at values of at least 85)
CC(C)(F)c1nc(N)nc(Nc2c(F)cccc2Oc2cc(Br)cc(Br)c2)n1 [Example 55]	very good (a very good herbicidal activity is given at values of at least 85)	very good (a very good herbicidal activity is given at values of at least 85)	very good (a very good herbicidal activity is given at values of at least 85)	
CC(C)(F)c1nc(N)nc(Nc2c(F)cccc2Oc2cc(F)cc(Br)c2)n1 [Example 56]	good (a good herbicidal activity is given at values of at least 70)	very good (a very good herbicidal activity is given at values of at least 85)	very good (a very good herbicidal activity is given at values of at least 85)	
COc1cc(Cl)cc(Oc2cccc(F)c2Nc2nc(N)nc(C(C)(C)F)n2)c1 [Example 57]	very good (a very good herbicidal activity is given at values of at least 85)	very good (a very good herbicidal activity is given at values of at least 85)	very good (a very good herbicidal activity is given at values of at least 85)	
CC(C)(F)c1nc(N)nc(Nc2c(F)cccc2Oc2cc(Cl)cc(Br)c2)n1 [Example 58]	very good (a very good herbicidal activity is given at values of at least 85)	very good (a very good herbicidal activity is given at values of at least 85)	very good (a very good herbicidal activity is given at values of at least 85)	
CC(C)(F)c1nc(N)nc(Nc2c(F)cccc2Oc2cc(F)cc(C#N)c2)n1 [Example 59]	very good (a very good herbicidal activity is given at values of at least 85)	very good (a very good herbicidal activity is given at values of at least 85)	very good (a very good herbicidal activity is given at values of at least 85)	
CC(C)(F)c1nc(N)nc(Nc2c(F)cccc2Oc2cc(Br)cc(OC(F)(F)F)c2)n1 [Example 60]	very good (a very good herbicidal activity is given at values of at least 85)	very good (a very good herbicidal activity is given at values of at least 85)	very good (a very good herbicidal activity is given at values of at least 85)	
COc1cc(Br)cc(Oc2cccc(F)c2Nc2nc(N)nc(C(C)(C)F)n2)c1 [Example 61]	very good (a very good herbicidal activity is given at values of at least 85)	very good (a very good herbicidal activity is given at values of at least 85)	very good (a very good herbicidal activity is given at values of at least 85)	
COc1cc(F)cc(Oc2cccc(F)c2Nc2nc(N)nc(C(C)(C)F)n2)c1 [Example 62]	very good (a very good herbicidal activity is given at values of at least 85)	very good (a very good herbicidal activity is given at values of at least 85)	very good (a very good herbicidal activity is given at values of at least 85)	
COc1cc(C)cc(Oc2cccc(F)c2Nc2nc(N)nc(C(C)(C)F)n2)c1 [Example 63]		very good (a very good herbicidal activity is given at values of at least 85)	very good (a very good herbicidal activity is given at values of at least 85)	herbicidal activity against ECHCG (ECHCG [6]): very good (a very good herbicidal activity is given at values of at least 85)
COc1cc(Oc2cccc(F)c2Nc2nc(N)nc(C(C)(C)F)n2)cc(C(F)(F)F)c1 [Example 65]	very good (a very good herbicidal activity is given at values of at least 85)	very good (a very good herbicidal activity is given at values of at least 85)		herbicidal activity against ECHCG (ECHCG [6]): very good (a very good herbicidal activity is given at values of at least 85)
CC(C)(F)c1nc(N)nc(Nc2c(F)cccc2Oc2cc(I)cc(I)c2)n1 [Example 67]		good (a good herbicidal activity is given at values of at least 70)		herbicidal activity against ECHCG (ECHCG [6]): good (a good herbicidal activity is given at values of at least 70)
CCOc1cc(OCC)cc(Oc2cccc(F)c2Nc2nc(N)nc(C(C)(C)F)n2)c1 [Example 68]	very good (a very good herbicidal activity is given at values of at least 85)	very good (a very good herbicidal activity is given at values of at least 85)		herbicidal activity against ECHCG (ECHCG [6]): very good (a very good herbicidal activity is given at values of at least 85)
CC(C)Oc1cc(F)cc(Oc2cccc(F)c2Nc2nc(N)nc(C(C)(C)F)n2)c1 [Example 99]				herbicidal activity against ALOMY (ALOMY; application rate 500 g/ha): very good (a very good herbicidal activity is given at values of at least 85); herbicidal activity against AMARE (AMARE [1]; application rate 500 g/ha): very good (a very good herbicidal activity is given at values of at least 85); herbicidal activity against ECHCG (ECHCG [3]; application rate 500 g/ha): very good (a very good herbicidal activity is given at values of at least 85)
CC(C)(F)c1nc(N)nc(Nc2c(F)cccc2Oc2cc(F)cc(I)c2)n1 [Example 101]				herbicidal activity against SEFTA (SETFA [2]; application rate 250 g/ha): very good (a very good herbicidal activity is given at values of at least 85); herbicidal activity against ALOMY (ALOMY; application rate 250 g/ha): good (a good herbicidal activity is given at values of at least 70); herbicidal activity against ECHCG (ECHCG [3]; application rate 250 g/ha): very good (a very good herbicidal activity is given at values of at least 85)
